Assay [1] in a line: Inhibition of Fe(3+)-mediated ascorbate oxidation at IBE of 0.1 relative to control. It counts as functional. Particulars: dose or concentration not given here.
The nature of assay [2]: Inhibition of hydroxylation of benzoate in presence of Fe(II) at IBE of 3 relative to control. Type of assay: functional. Particulars: dose or concentration not given here.
Assay [3] is described as follows: Inhibition of Fe(3+)-mediated ascorbate oxidation at IBE of 3 relative to control. It counts as functional. Particulars: dose or concentration not given here.
Assay [4] is described as follows: Inhibition of Fe(3+)-mediated ascorbate oxidation at IBE of 1 relative to control. It counts as functional. Particulars: dose or concentration not given here.
For a further assay, the system named is SK-N-MC. Briefly: Antiproliferative activity against human SK-N-MC cells after 96 hrs by MTT assay. Type of assay: functional, cell-based.
A short description of assay [5]: Inhibition of hydroxylation of benzoate in presence of Fe(II) at IBE of 1 relative to control. Particulars: dose or concentration not given here. Type of assay: functional.
The next assay has as its system Nucleic Acid. In words: Binding affinity to DNA measured as hypochromicity of UV-vis spectra. Type of assay: nucleic-acid assay.
A short description of assay [6]: Increase in Fe(2+)-mediated hydroxyl radical production measured as hydroxylation of benzoate at IBE of 3 relative to control. Type of assay: functional.
Assay [7] is described as follows: Increase in Fe(3+)-mediated ascorbate oxidation at IBE of 1 relative to control. It counts as functional.
A short description of assay [8]: Increase in Fe(2+)-mediated hydroxyl radical production measured as hydroxylation of benzoate at IBE of 1 relative to control. It counts as functional.
The nature of assay [9]: Increase in Fe(3+)-mediated ascorbate oxidation at IBE of 3 relative to control. It counts as functional.
A short description of assay [10]: Increase in Fe(3+)-mediated ascorbate oxidation at IBE of 0.1 relative to control. It counts as functional.

Activity calls are given as the source filed them. No cut-off for these calls is given here.

As for `CC(=O)N(O)CCCCCNC(=O)CCC(=O)N(O)CCCCCNC(=O)CCC(=O)N(O)CCCCCN` [DEFEROXAMINE], the inhibition – broadly, how much of the control response was suppressed – in [1] came to 79%; in [2] it was 56%; in assay [3] it was 59%; in assay [4] it was 60%; in [5], 56%. In the assay with SK-N-MC, 8.58 µM corresponded to half-maximal inhibition (IC50).
Take `COc1cccc2c1C(=O)c1c(O)c3c(c(O)c1C2=O)C[C@@](O)(C(=O)CO)C[C@@H]3O[C@H]1C[C@H](N)[C@H](O)[C@H](C)O1`: the Activity in the assay with Nucleic Acid is 36%.
Take `O=C(O)CN(CCN(CC(=O)O)CC(=O)O)CC(=O)O`: the Activity amounted to 343% in assay [6], 475% in assay [7], 309% in [8] and 482% in assay [9].
As for `CN(C)C(=S)NN=C(c1ccccn1)c1ccccn1`, the result in assay [6] and in assay [10] was Active. Besides, the values for the Activity in assay [7] and in [9] were 439% and 406%, respectively. In addition, the midpoint of inhibition with SK-N-MC, the IC50, lay at 0.01 µM.

The values are drawn from ChEMBL document CHEMBL1137318, “Dipyridyl thiosemicarbazone chelators with potent and selective antitumor activity form iron complexes with redox activity” (J Med Chem, 2006).
